Data on four compounds can be found in patent publication US8207222B2, “Nitric oxide releasing derivatives of paracetamol” (Council of Scientific and Industrial Research, priority 2007, dated 2012).

By melting point is commonly meant the temperature of the solid-liquid transition.

Series [1] concerns acetic acid induced writhing. Nature of the series: acetic acid induced writhing assay (analgesic activity). The note with it: 100 mg/kg p.o., 30 min prior to i.p. acetic acid, mean ± SEM. The series is classed as in vivo, Laca mice. The protocol:
Animals: Wistar rats (male 150-200 g) of both sex and Laca mice (male, 25-35 g) procured from Central Animal House, Punjab University, Chandigarh, India were used. Animals were housed under standard laboratory conditions and maintained on rat chow, Animals were allowed free access to food and water until used and fasted 24 hr prior to studies. Analgesic activity (Table 2 and FIG. 1 Sheet No. 1 FIG. 3): Analgesic activity was determined by using abdominal writhing assay. Mice were divided into different groups containing 6 animals in each group. Pain can be induced by injection of irritants into the peritoneal cavity of mice. The animals react with a characteristic stretching behaviour which is called writhing. An irritating agent such as phenylquinone or acetic acid can be injected intraperitoneally to mice and the stretching reaction is evaluated. The most commonly used methods for measuring peripheral analgesic activity are the writhing tests in mice. The details of the experiment carried out are mentioned below: Analgesic activity was determined against acetic acid induced writhing assay. Writhing was induced by intraperitoneal (i.p.) injection of freshly prepared acetic acid solution. Mice were per orally (p.o.) administered paracetamol (1) and synthesized NO-releasing derivatives (12 and 13) at a dose of 100 mg/kg, emulsified in 0.5% sodium carboxy methyl cellulose (sodium CMC) vehicle, 30 min prior to i.p. acetic acid (1% w/v in saline pH 2.7, 10 ml/kg, i.p.). Animals were immediately transferred to individual observation chambers and number of writhes (constriction of abdomen, turning of trunk, and extension of hind Limbs) were monitored over the following 20 minutes, beginning 3 min after the injection of acetic acid. At the end of observation period the animals were killed by cervical dislocation and exsaguination. The average number of writhes in each group of drug treated mice was compared with that of the control group and degree of analgesia was expressed as % inhibition calculated from the equation: % Inhibition=(1−Nt/Nc)×100 Where, Nc=number of writhes in control • Nt=number of writhes in drug treated mice

A further series concerns liver. Nature of the series: liver histopathology (haematoxylin and eosin). The series is classed as in vivo, mouse. The note with it: 1000 mg/kg, i.p.; H&E stain.
The test system of the next series is SGPT/ALT. Nature of the series: plasma marker of liver injury SGPT/ALT, spectrophotometric kit. The note with it: 1000 mg/kg, 6 hr after administration, vs basal value, mean ± SEM. The series is classed as in vivo. The protocol: (§1) Biochemical Assays (Table 3 and FIG. 2 Sheet No. 1 for SGPT(ALT), and Table 4 and FIG. 3 Sheet No. 2 for ALP): Paracetamol was given at a dose of 1000 mg/Kg and an equivalent dose of 1000 mg/Kg of the derivatives 12 and 13 was given p.o. Before administration blood samples of each animal were taken and after 6 hrs the animals were sacrificed to collect blood samples, and the serum was separated out. Measurement of plasma markers of liver Serum Glutamate oxaloacetate transaminase (SGOT) pyruvate transaminase (SGPT) and Alkaline Phosphatase (ALP) were assayed spectrophotometrically using commercially available kits.
(§2) The animals were divided into different groups containing 6-8 animals in each group. Animals were lightly anaesthetized with diethyl ether and blood samples were collected which served as the basal reading of the enzyme to be analyzed. These groups of rats were then treated with paracetamol (1000 mg/Kg, i.p.), and equivalent dose of the test compounds. Control group was treated with an equal volume of vehicle (0.9% w/v sodium chloride containing 20% v/v tween-80). Animals were lightly anesthetized with ethyl ether and blood samples were collected and allowed to coagulate at room temperature for 1 hr, serum was then separated by centrifugation (5,000 rpm for 10 min) at 4° C. and stored at −40.0° C. till estimation. Plasma markers of liver injury were assayed spectrophotometrically using following commercially available kits according to standard laboratory techniques:
(§3) […]. Enzymes like alkaline phosphatase (ALP, EC 3.1.3.1), serum glutamate pyruvate transaminase (SGPT) or alanine aminotransferase (ALT) ([…]) and the total proteins are considered as plasma markers of liver injury. Nitric oxide releasing paracetamol derivatives 12 and 13 were evaluated for their effect on the markers of liver injury like enzymes ALP and SGPT/ALT. The plasma level of these enzymes is found to increase in the case of liver toxicity.

Series [2] deals with carrageenan induced rat paw edema. Nature of the series: carrageenan induced rat paw edema model (anti-inflammatory activity). The series is classed as in vivo, Wistar rats. The note with it: 100 mg/kg p.o.; for % Increase in paw volume Mean ± SEM 2 hr: 2 hr after carrageenan challenge; for anti-inflammatory activity (in words): 2 hr and 4 hr; for % Increase in paw volume Mean ± SEM 4 hr: 4 hr after carrageenan challenge. The text has this: Animals: Wistar rats (male 150-200 g) of both sex and Laca mice (male, 25-35 g) procured from Central Animal House, Punjab University, Chandigarh, India were used. Animals were housed under standard laboratory conditions and maintained on rat chow, Animals were allowed free access to food and water until used and fasted 24 hr prior to studies.
Experimental conditions: Unless otherwise stated, the following conditions were employed in all experiments. The test compounds were suspended in 0.5% carboxymethylcellulose (CMC) and administered per orally (p.o.). Control animals were given the corresponding amount of vehicle (0.5%, CMC).
Anti-inflammatory activity (Table 1): Anti-inflammatory activity was determined by using carrageenan induced rat paw edema model. Rats were divided into different groups and the drugs were administered to each group.
Paw edema in rats (various modifications and various irritants) is the most widely used method for testing acute and subacute inflammation. It is based upon the ability of anti-inflammatory agents to inhibit the edema produced in the hind paw of the rat after injection of a phlogistic agent. Many phlogistic agents (irritants) have been used, such as brewer's yeast, formaldehyde, dextran, egg albumin, kaolin, sulfated polysaccharides like carrageenin or naphthoylheparamine. The volume of the injected paw is measured before and after application of the irritant and the paw volume of the treated animals is compared to the control. The details of the experiment carried out are described below:
The paracetamol (1) and synthesized NO-releasing derivatives (12 and 13) were administered p.o. at a dose of 100 mg/kg, p.o., emulsified in 0.5% sodium carboxy methyl cellulose (0.5% sodium CMC). Anti-inflammatory activity was determined by using carrageenan induced rat paw edema model. Rats were divided into different groups and the drugs/derivatives were administered to each group. Acute edema was induced in left hind paw of rats by injecting freshly prepared solution of carrageenan (Type IV, 0.1 ml, 1%) under plantar region of left hind paw. In the right paw, saline ([…], 0.9%) was injected, which served as control for comparison. The increase in paw volume was measured by using plethysmometer (water displacement, UGO BASILE, Varese, Italy) at 2 hr and 4 hr after carrageenan challenge. Percentage change (increase) in paw volume was calculated and expressed as the amount of inflammation. % increase in paw volume at any time=(V1−Vr)/Vr×100
Where, V1 Volume of left paw • Vr=Volume of right paw (control)
Background: Carrageenan injected into the paw causes an acute inflammation.

The target in another series is T1, cox-2 (ovine) (Ovis aries, UniProt P79208).
T1 construct: purchased Cayman Chemical Company, USA
T1 sequence (P79208 17-603): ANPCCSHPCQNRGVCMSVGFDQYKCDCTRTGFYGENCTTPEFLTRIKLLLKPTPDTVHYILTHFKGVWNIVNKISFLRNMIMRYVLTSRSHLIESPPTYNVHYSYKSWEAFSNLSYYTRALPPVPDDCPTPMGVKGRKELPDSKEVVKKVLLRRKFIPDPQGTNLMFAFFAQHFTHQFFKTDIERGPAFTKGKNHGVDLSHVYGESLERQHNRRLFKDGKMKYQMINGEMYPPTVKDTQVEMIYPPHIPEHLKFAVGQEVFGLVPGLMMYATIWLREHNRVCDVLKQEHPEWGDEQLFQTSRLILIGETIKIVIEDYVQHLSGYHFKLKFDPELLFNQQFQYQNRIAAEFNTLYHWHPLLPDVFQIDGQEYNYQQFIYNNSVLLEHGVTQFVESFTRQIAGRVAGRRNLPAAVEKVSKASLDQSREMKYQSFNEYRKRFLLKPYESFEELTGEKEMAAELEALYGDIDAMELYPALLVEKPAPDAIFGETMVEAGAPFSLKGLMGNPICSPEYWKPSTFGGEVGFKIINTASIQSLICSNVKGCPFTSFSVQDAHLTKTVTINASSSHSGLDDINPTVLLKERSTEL
Briefly: In vitro cox-2 (ovine) inhibitory assay. The conditions noted are these: prostaglandin quantified by EIA, concentration not given. In kind it is biochemical. From the text: In vitro cox-2 (ovine) inhibitory assay: The prostaglandin product is quantified via enzyme immunoassay (EIA) using a broadly specific antibody that binds to all major prostaglandin compounds. Assay kit was purchased from Cayman Chemical Company, USA.

The subject of a further series is ALP. In kind it is in vivo. The conditions noted are these: 1000 mg/kg; 6 hr after administration, vs basal value; mean ± SEM. The protocol: as §1, §2, §3
A short description of series [3]: in vivo nitric oxide release, serum nitrate/nitrite by Cayman kit. The note with it: for NO serum level: dose of 100 mg/kg body weight, control 182.1±0.68, in µmol/L; for serum nitrate/nitrite concentration: 6 hours after 100 mg/Kg p.o., control 182.1 ± 0.68. How it is done: 100 mg/Kg of the derivatives 12 and 13 was given p.o. After 6 hours the animals were sacrificed to collect blood samples and the serum was separated out to find out the levels of NO. Plasma nitrate/nitrite concentration level was measured by commercially available Cayman Kit.

Several values for one entry are separate records, joined by “and”; a condition that tells them apart may be missing. Identical values can stand only once. Entries after “also recorded” stand apart in the source; their conditions may differ. Marks after values point to notes of the source that are not given here.

As to `CC(=O)Nc1ccc(O)cc1` [Compound 1, N-(4-hydroxyphenyl)-acetamide, reference compound], the “% INHIBITION IN WRITHINGS” value in series [1] amounted to 45.36 ± 1.34%; in series [1] (listed as paracetamol (1)), 45.36±1.34%. Also, the “liver damage in histopathology (light microscopy)” value (“liver damage in histopathology” for short) in the series on liver was “ballooning degeneration, sinusoidal decongestion, portal triad inflammation and spoty necrosis in Zone I”. The “% INCREASE IN SGPT/ALT LEVEL” value in the series with SGPT/ALT (listed as Paracetamol (1)) is on record as 83.11 ± 3.3 %; in the series with SGPT/ALT (listed as paracetamol (1)), “more than 80%”. Moreover, the “% Increase in paw volume Mean ± SEM 2 hr” value in series [2] is 38.37 ± 1.26%; in series [2] (listed as paracetamol), 38.37±1.26%; in series [2] (listed as paracetamol (1)) it was 38.37±1.26%. Besides, the “anti-inflammatory activity (in words)” value in series [2] was “No significant activity”. In addition, the results for the “% Increase in paw volume Mean ± SEM 4 hr” value in series [2], in series [2] (listed as paracetamol) and in series [2] (listed as paracetamol (1)) were 58.92 ± 1.56%, 58.92±1.56% and 58.92±1.56%, respectively. Also, at cox-2 (ovine), the “cox-2 (ovine) inhibition” value amounted to 24.0%. Besides, the “% INCREASE IN ALP LEVEL” value with ALP was found to be 15.75 ± 1.07 %.

In series [3], `CC(=O)Nc1ccc(OCCO[N+](=O)[O-])cc1` [Compound 12, N-[4-(2-Nitrooxy-ethoxy)-phenyl]-acetamide] had an NO serum level of 354.2±2.17 and a serum nitrate/nitrite concentration of 354.2 ± 2.17 µmol/L. For the same compound, the “% INHIBITION IN WRITHINGS” value in series [1] was determined as 58.35±1.50%. Further, in the series with liver, the “liver damage in histopathology” value is “Mild ballooning degeneration”. The “% INCREASE IN SGPT/ALT LEVEL” value in the series with SGPT/ALT was 27.94 ± 2.7*^,# %. Besides, in series [2], the “% Increase in paw volume Mean ± SEM 2 hr” value is 32.68±1.45%; the “anti-inflammatory activity (in words)” value is reported as “good anti-inflammatory activity”; the “% Increase in paw volume Mean ± SEM 4 hr” value was 26.44±0.10% and 26.44 ± .10%. The “cox-2 (ovine) inhibition” value on cox-2 (ovine) is recorded as 21.0%. For the same compound, the “% INCREASE IN ALP LEVEL” value in the series on ALP amounted to 4.17 ± 0.62 %.

For the compound `CC(=O)Nc1ccc(OCCCCCO[N+](=O)[O-])cc1` [Compound 13, N-[4-(5-Nitrooxy-pentoxy)-phenyl]-acetamide], in series [3], the NO serum level came to 265.4±2.47 and the serum nitrate/nitrite concentration was determined as 265.4 ± 2.47 µmol/L. Further, in series [1], the “% INHIBITION IN WRITHINGS” value is 61.80±1.69%. Also, the “liver damage in histopathology” value in the series on liver was “didn't cause any significant damage to the liver; also recorded: no significant damage”. For the same compound, the “% INCREASE IN SGPT/ALT LEVEL” value with SGPT/ALT was 11.72 ± 1.4*^,# %. Besides, in series [2], the “% Increase in paw volume Mean ± SEM 2 hr” value was found to be 31.15±1.31% and the “% Increase in paw volume Mean ± SEM 4 hr” value came out at 28.45±1.28%. At cox-2 (ovine), the “cox-2 (ovine) inhibition” value turned out to be 32.5%. Further, the “% INCREASE IN ALP LEVEL” value in the series on ALP was 2.85 ± 0.83 %.

In turn, `CC(=O)Nc1ccc(OCCCCO[N+](=O)[O-])cc1` [Compound 19, N-[4-(4-Nitrooxy-butoxy)-phenyl]-acetamide] gave a melting point of 92 to 98 °C.
